# Test results published in PubChem BioAssay AID256 (DTP/NCI, 2004).
# Toxic doses and inconclusive results are not listed.
# System: CD2F1 mice, L1210 leukemia ip, survival T/C
# Assay: NCI In Vivo Anticancer Drug Screen. Data for tumor model L1210 Leukemia (intraperitoneal) in CD2F1 (CDF1) mice
# Conditions: higher = longer survival
# Outline: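 In this screen, transplantable tumors were grown in mice given either the compound or its vehicle. Results were expressed as the treated measurement relative to the control measurement.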
# [1] = endpoint: mean survival time, dose: 25.0 mg/kg/injection, schedule: Q04DX002 (ip), vehicle: saline with Tween-80
# [2] = endpoint: mean survival time, dose: 50.0 mg/kg/injection, schedule: Q04DX002 (ip), vehicle: saline with Tween-80
# [3] = endpoint: mean survival time, dose: 100.0 mg/kg/injection, schedule: Q04DX003 (ip), vehicle: saline with Tween-80
# [4] = endpoint: mean survival time, dose: 200.0 mg/kg/injection, schedule: Q04DX003 (ip), vehicle: saline with Tween-80
# [5] = endpoint: mean survival time, dose: 400.0 mg/kg/injection, schedule: Q04DX003 (ip), vehicle: saline with Tween-80
# [6] = endpoint: mean survival time, dose: 50.0 mg/kg/injection, schedule: Q04DX003 (ip), vehicle: saline with Tween-80
# [7] = endpoint: mean survival time, dose: 100.0 mg/kg/injection, schedule: Q01DX009 (ip), vehicle: saline with Tween-80
# [8] = endpoint: mean survival time, dose: 200.0 mg/kg/injection, schedule: Q01DX009 (ip), vehicle: saline with Tween-80
# [9] = endpoint: mean survival time, dose: 400.0 mg/kg/injection, schedule: Q01DX009 (ip), vehicle: saline with Tween-80
smiles,measurement,setting,value
CC(=O)OC1CSC1,T/C,"endpoint: mean survival time, dose: 30.0 mg/kg/injection, schedule: Q01DX001 (ip), vehicle: saline with Tween-80",106 % of control
same,T/C,"endpoint: mean survival time, dose: 60.0 mg/kg/injection, schedule: Q01DX001 (ip), vehicle: saline with Tween-80",109 % of control
same,T/C,"endpoint: mean survival time, dose: 120.0 mg/kg/injection, schedule: Q01DX001 (ip), vehicle: saline with Tween-80",101 % of control
COCC(=O)C(C(C)=O)C(c1ccccn1)C(C(C)=O)C(=O)COC (stereo not drawn),T/C,"endpoint: mean survival time, dose: 12.5 mg/kg/injection, schedule: Q04DX002 (ip), vehicle: saline with Tween-80",96 % of control
same,T/C,[1],96 % of control
same,T/C,[2],104 % of control
CC1CP(c2ccccc2)(c2ccccc2)(c2ccccc2)OC1(C(=O)c1ccccc1)c1ccccc1 (stereo not drawn),T/C,"endpoint: mean survival time, dose: 25.0 mg/kg/injection, schedule: Q01DX009 (ip), vehicle: saline with Tween-80",89 % of control
same,T/C,[3],91 % of control
c1ccc2c(c1)Cn1c-2nc2ccccc21,T/C,[3],97 % of control
same,T/C,[4],97 % of control
same,T/C,[5],94 % of control
COC(=O)C1C(O)C(C)C(O)C(C)/C=C\C=C(C)C(=O)Nc2c(C)c(OC(C)=O)c3c(c2O)C(=O)C(C)=C2OCOC(=C23)C(C)=CC(C)(O)C(O)C(C)C1O (stereo not drawn),T/C,[6],95 % of control
same,T/C,[3],98 % of control
same,T/C,[4],92 % of control
CCOc1ccc(CO)cc1,T/C,[7],104 % of control
same,T/C,[8],98 % of control
same,T/C,[9],108 % of control
[Br][Pt+2][Br].[NH-]c1ccc(F)cc1.[NH-]c1ccc(F)cc1,T/C,"endpoint: mean survival time, dose: 3.13 mg/kg/injection, schedule: Q04DX003 (ip), vehicle: distilled water + Tween-80",101 % of control
same,T/C,"endpoint: mean survival time, dose: 6.25 mg/kg/injection, schedule: Q04DX003 (ip), vehicle: distilled water + Tween-80",104 % of control
same,T/C,"endpoint: mean survival time, dose: 12.5 mg/kg/injection, schedule: Q04DX003 (ip), vehicle: distilled water + Tween-80",104 % of control
same,T/C,"endpoint: mean survival time, dose: 25.0 mg/kg/injection, schedule: Q04DX003 (ip), vehicle: distilled water + Tween-80",108 % of control
same,T/C,"endpoint: mean survival time, dose: 50.0 mg/kg/injection, schedule: Q04DX003 (ip), vehicle: distilled water + Tween-80",110 % of control
same,T/C,"endpoint: mean survival time, dose: 100.0 mg/kg/injection, schedule: Q04DX003 (ip), vehicle: distilled water + Tween-80",113 % of control
COC1CCC([NH-])(C[NH-])C(c2ccc3c(c2)OCO3)O1.[Cl][Pt+2][Cl] (stereo not drawn),T/C,"endpoint: median survival time, dose: 8.25 mg/kg/injection, schedule: Q04DX003 (ip), vehicle: saline",103 % of control
same,T/C,"endpoint: median survival time, dose: 17.5 mg/kg/injection, schedule: Q04DX003 (ip), vehicle: saline",105 % of control
same,T/C,"endpoint: median survival time, dose: 35.0 mg/kg/injection, schedule: Q04DX003 (ip), vehicle: saline",110 % of control
same,T/C,"endpoint: median survival time, dose: 70.0 mg/kg/injection, schedule: Q04DX003 (ip), vehicle: saline with Tween-80",108 % of control
same,T/C,"endpoint: median survival time, dose: 70.0 mg/kg/injection, schedule: Q04DX003 (ip), vehicle: saline",106 % of control
same,T/C,"endpoint: median survival time, dose: 140.0 mg/kg/injection, schedule: Q04DX003 (ip), vehicle: saline with Tween-80",113 % of control
Clc1ccc(CC[PH+]2CC=CC2)cc1.Clc1ccc(CC[PH+]2CC=CC2)cc1.[Cl][Ni][Cl],T/C,"endpoint: mean survival time, dose: 12.5 mg/kg/injection, schedule: Q01DX009 (ip), vehicle: DMSO",101 % of control
same,T/C,"endpoint: mean survival time, dose: 25.0 mg/kg/injection, schedule: Q01DX009 (ip), vehicle: DMSO",101 % of control
same,T/C,[1],91 % of control
same,T/C,[2],95 % of control
CCN(C(=O)Nc1cc(OC)ccc1OC)c1ccc(Cl)cc1,T/C,[7],96 % of control
same,T/C,[8],96 % of control
same,T/C,[9],93 % of control
OC1C(O)C(O)C(O)C(O)C1O (stereo not drawn),T/C,"endpoint: mean survival time, dose: 100.0 mg/kg/injection, schedule: Q01DX009 (ip), vehicle: saline",104 % of control
same,T/C,"endpoint: mean survival time, dose: 200.0 mg/kg/injection, schedule: Q01DX009 (ip), vehicle: saline",94 % of control
same,T/C,"endpoint: mean survival time, dose: 400.0 mg/kg/injection, schedule: Q01DX009 (ip), vehicle: saline",94 % of control
c1ccc([P+](c2ccccc2)(c2ccccc2)C2CCC2)cc1,T/C,"endpoint: mean survival time, dose: 9.4 mg/kg/injection, schedule: Q04DX003 (ip), vehicle: saline",97 % of control
same,T/C,"endpoint: mean survival time, dose: 18.8 mg/kg/injection, schedule: Q04DX003 (ip), vehicle: saline",102 % of control
same,T/C,"endpoint: mean survival time, dose: 37.5 mg/kg/injection, schedule: Q04DX003 (ip), vehicle: saline",102 % of control
COc1cc(C2c3cc4c(cc3[C@@H](OC3OC5CO[C@@H](C)OC5C(O)C3O)[C@H]3COC(=O)C23)OCO4)cc(OC)c1OC (stereo partly drawn),T/C,"endpoint: median survival time, dose: 50.0 mg/kg/injection, schedule: Q01DX005 (ip), vehicle: saline",164 % of control
same,T/C,"endpoint: median survival time, dose: 60.0 mg/kg/injection, schedule: Q01DX009 (ip), vehicle: saline",161 % of control
same,T/C,"endpoint: median survival time, dose: 100.0 mg/kg/injection, schedule: Q01DX005 (ip), vehicle: saline",211 % of control
same,T/C,"endpoint: median survival time, dose: 100.0 mg/kg/injection, schedule: Q01DX009 (ip), vehicle: saline",277 % of control
same,T/C,"endpoint: median survival time, dose: 166.67 mg/kg/injection, schedule: Q01DX009 (ip), vehicle: saline",297 % of control
same,T/C,"endpoint: median survival time, dose: 200.0 mg/kg/injection, schedule: Q01DX005 (ip), vehicle: saline",211 % of control
same,T/C,"endpoint: median survival time, dose: 277.78 mg/kg/injection, schedule: Q01DX009 (ip), vehicle: saline",86 % of control
CCc1cc(O)cc(C)c1Cl,T/C,[7],96 % of control
same,T/C,[3],92 % of control
same,T/C,[8],92 % of control
same,T/C,[4],92 % of control
same,T/C,[5],100 % of control
COC(=O)CCC(=O)c1cccc(C)c1,T/C,"endpoint: mean survival time, dose: 200.0 mg/kg/injection, schedule: Q04DX003 (ip), vehicle: acetone",91 % of control
same,T/C,"endpoint: mean survival time, dose: 400.0 mg/kg/injection, schedule: Q04DX003 (ip), vehicle: acetone",89 % of control
[Cl][Pt+2][Cl].[NH-]c1ccc(S(N)(=O)=O)cc1.[NH-]c1ccc(S(N)(=O)=O)cc1,T/C,"endpoint: mean survival time, dose: 25.0 mg/kg/injection, schedule: Q04DX003 (ip), vehicle: saline with Tween-80",90 % of control
same,T/C,[6],98 % of control
same,T/C,[3],94 % of control
same,T/C,[4],102 % of control
same,T/C,[5],102 % of control
CCOC(=O)C(C(=O)OCC)C1c2ccccc2C(=O)N(CCN(C)C)c2ccccc21 (stereo not drawn),T/C,"endpoint: mean survival time, dose: 130.0 mg/kg/injection, schedule: Q01DX001 (ip), vehicle: saline",103 % of control
CC1(C)CC2(OC2c2ccccc2)C(=O)c2ccccc21 (stereo not drawn),T/C,"endpoint: mean survival time, dose: 12.5 mg/kg/injection, schedule: Q01DX009 (ip), vehicle: Klucel (hydroxypropylcellulose) (HPC)",96 % of control
same,T/C,"endpoint: mean survival time, dose: 25.0 mg/kg/injection, schedule: Q01DX009 (ip), vehicle: Klucel (hydroxypropylcellulose) (HPC)",92 % of control
same,T/C,"endpoint: mean survival time, dose: 50.0 mg/kg/injection, schedule: Q01DX009 (ip), vehicle: Klucel (hydroxypropylcellulose) (HPC)",87 % of control
same,T/C,"endpoint: mean survival time, dose: 100.0 mg/kg/injection, schedule: Q01DX009 (ip), vehicle: Klucel (hydroxypropylcellulose) (HPC)",96 % of control
same,T/C,"endpoint: mean survival time, dose: 200.0 mg/kg/injection, schedule: Q01DX009 (ip), vehicle: Klucel (hydroxypropylcellulose) (HPC)",94 % of control
same,T/C,"endpoint: mean survival time, dose: 400.0 mg/kg/injection, schedule: Q01DX009 (ip), vehicle: Klucel (hydroxypropylcellulose) (HPC)",94 % of control
C[C@H]1CN1C1=CC(=O)C(N2C[C@@H]2C)=CC1=O,T/C,"endpoint: mean survival time, dose: 3.13 mg/kg/injection, schedule: Q01DX009 (ip), vehicle: other",183 % of control
same,T/C,"endpoint: mean survival time, dose: 4.69 mg/kg/injection, schedule: Q01DX009 (ip), vehicle: other",168 % of control
same,T/C,"endpoint: mean survival time, dose: 6.25 mg/kg/injection, schedule: Q01DX009 (ip), vehicle: other",123 % of control
same,T/C,"endpoint: mean survival time, dose: 12.6 mg/kg/injection, schedule: Q01DX001 (ip), vehicle: other",116 % of control
same,T/C,"endpoint: mean survival time, dose: 18.7 mg/kg/injection, schedule: Q04DX003 (ip), vehicle: saline with Tween-80",98 % of control
CC12CCC(=O)C=C1CCC1C2C(=O)CC2(C)C1CCC2(O)C(=O)Cn1ccc(=O)[nH]c1=O (stereo not drawn),T/C,"endpoint: mean survival time, dose: 12.5 mg/kg/injection, schedule: Q04DX003 (ip), vehicle: Klucel (hydroxypropylcellulose) (HPC)",91 % of control
same,T/C,"endpoint: mean survival time, dose: 25.0 mg/kg/injection, schedule: Q04DX003 (ip), vehicle: Klucel (hydroxypropylcellulose) (HPC)",101 % of control
same,T/C,"endpoint: mean survival time, dose: 50.0 mg/kg/injection, schedule: Q04DX003 (ip), vehicle: Klucel (hydroxypropylcellulose) (HPC)",98 % of control
same,T/C,"endpoint: mean survival time, dose: 100.0 mg/kg/injection, schedule: Q04DX003 (ip), vehicle: Klucel (hydroxypropylcellulose) (HPC)",96 % of control
same,T/C,"endpoint: mean survival time, dose: 200.0 mg/kg/injection, schedule: Q04DX003 (ip), vehicle: Klucel (hydroxypropylcellulose) (HPC)",98 % of control
CCCCCC(CN(C)C)C(=O)/C=C/c1ccc(Cl)c(Cl)c1 (stereo not drawn),T/C,"endpoint: mean survival time, dose: 6.25 mg/kg/injection, schedule: Q01DX009 (ip), vehicle: acetone",92 % of control
same,T/C,"endpoint: mean survival time, dose: 12.5 mg/kg/injection, schedule: Q01DX009 (ip), vehicle: acetone",94 % of control
same,T/C,"endpoint: mean survival time, dose: 25.0 mg/kg/injection, schedule: Q01DX009 (ip), vehicle: acetone",97 % of control
CON(C)CC(O)c1ccccc1 (stereo not drawn),T/C,[3],94 % of control
same,T/C,[4],92 % of control
